In patent US11149040B2, “Fused triazole agonists of the APJ receptor” (AMGEN INC., priority 2017, dated 2021):

Biological target: human APJ receptor (Homo sapiens (Human), UniProt P35414)
Assay: [35S]GTPγS binding assay on membranes from CHO cells stably expressing human APJ receptor
Type: biochemical
Settings: read-out: Activity hAPJ SPA EC50 IP
Experimental: [^35S]GTPγS Binding The human APJ receptor was cloned by polymerase chain reaction and the gene encoding the receptor was subcloned in pFLAG-CMV™-3 expression vector (Sigma, Saint Louis, Mo. USA) in-house at Amgen. A GTPγS binding assay was performed on membranes prepared from CHO cells stably expressing human APJ receptor. The optimum experimental conditions for the concentrations of GDP, MgCl2, and NaCl in the assay buffer were initially determined. […] Incubation was at RT for 90 min and the microplate was read using a ViewLux™ ultra HTS Microplate Imager (PerkinElmer, Inc.). All the results presented are means of several independent experiments and analyzed by non-linear regression methods using the commercially available program Prism (GraphPad, San Diego, Calif.) providing the EC50 values detailed in Table 13.

Sequence of human APJ receptor (P35414 whole entry): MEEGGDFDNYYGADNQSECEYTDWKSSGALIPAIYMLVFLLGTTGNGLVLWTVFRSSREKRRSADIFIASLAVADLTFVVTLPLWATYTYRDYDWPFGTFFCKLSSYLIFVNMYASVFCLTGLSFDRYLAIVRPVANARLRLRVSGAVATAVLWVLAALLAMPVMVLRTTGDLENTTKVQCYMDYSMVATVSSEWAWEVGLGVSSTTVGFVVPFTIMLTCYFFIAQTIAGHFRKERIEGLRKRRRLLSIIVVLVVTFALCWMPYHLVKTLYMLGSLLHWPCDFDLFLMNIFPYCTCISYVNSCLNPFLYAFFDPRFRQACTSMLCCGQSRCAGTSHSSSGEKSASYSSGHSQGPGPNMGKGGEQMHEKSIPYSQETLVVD

In the case of `COC[C@@H]1COc2ncccc2-c2nnc(NS(=O)(=O)[C@@H](C)[C@H](OC(C)C)c3ncc(C)cn3)n21` (mixture of isomers) [Example 59.0, (1R,2S)-N-((5R)-5-(methoxymethyl)-5,6-dihydropyrido[3,2-f][1,2,4]triazolo[4,3-d][1,4]oxazepin-3-yl)-1-(5-methyl-2-pyrimidinyl)-1-(2-propanyloxy)-2-propanesulfonamide and (1R,2S)-N-((5S)-5-(methoxymethyl)-5,6-dihydropyrido[3,2-f][1,2,4]triazolo[4,3-d][1,4]oxazepin-3-yl)-1-(5-methyl-2-pyrimidinyl)-1-(2-propanyloxy)-2-propanesulfonamide], the EC50 is reported as 1200 nM.
Work on `COC[C@@H]1COc2ccc(OC)nc2-c2nnc(NS(=O)(=O)[C@@H](C)[C@@H](OC(C)C)c3ncc(C)cn3)n21` (single isomer, unassigned) [Example 14.0, (1S,2S)-N-((5R)-10-methoxy-5-(methoxymethyl)-5,6-dihydropyrido[2,3-1][1,2,4]triazolo[4,3-d][1,4]oxazepin-3-yl)-1-(5-methyl-2-pyrimidinyl)-1-(2-propanyloxy)-2-propanesulfonamide or (1S,2S)-N-((5S)-10-methoxy-5-(methoxymethyl)-5,6-dihydropyrido[2,3-1][1,2,4]triazolo[4,3-d][1,4]oxazepin-3-yl)-1-(5-methyl-2-pyrimidinyl)-1-(2-propanyloxy)-2-propanesulfonamide] yielded an EC50 of 400 nM.
With `COC[C@@H]1COc2ccccc2-c2nnc(NS(=O)(=O)[C@@H](C)[C@@H](OC(C)C)c3ncc(C)cn3)n21` (single isomer, unassigned) [Example 5.0, (1S,2S)-N-((5R)-5-(methoxymethyl)-5,6-dihydro[1,2,4]triazolo[4,3-d][1,4]benzoxazepin-3-yl)-1-(5-methyl-2-pyrimidinyl)-1-(2-propanyloxy)-2-propanesulfonamide or (1S,2S)-N-((5S)-5-(methoxymethyl)-5,6-dihydro[1,2,4]triazolo[4,3-d][1,4]benzoxazepin-3-yl)-1-(5-methyl-2-pyrimidinyl)-1-(2-propanyloxy)-2-propanesulfonamide] the EC50 was 130 nM.
`COC[C@@H]1COc2ccccc2-c2nnc(NS(=O)(=O)[C@@H](C)[C@H](C)c3ncc(OC)cn3)n21` (single isomer, unassigned) [Example 2.0, (2S,3R)-N-((5R)-5-(methoxymethyl)-5,6-dihydro[1,2,4]triazolo[4,3-d][1,4]benzoxazepin-3-yl)-3-(5-methoxy-2-pyrimidinyl)-2-butanesulfonamide or (2S,3R)-N-((5S)-5-(methoxymethyl)-5,6-dihydro[1,2,4]triazolo[4,3-d][1,4]benzoxazepin-3-yl)-3-(5-methoxy-2-pyrimidinyl)-2-butanesulfonamide] was tested, and the EC50 was 770 nM.
In the case of `COc1ccc2c(c1)-c1nnc(NS(=O)(=O)[C@@H](C)[C@@H](OC(C)C)c3ncc(C)cn3)n1C(CO)CO2` (single isomer, unassigned) [Example 151.0, (1S,2S)-N-((5R)-5-(hydroxymethyl)-10-methoxy-5,6-dihydro[1,2,4]triazolo[4,3-d][1,4]benzoxazepin-3-yl)-1-(5-methyl-2-pyrimidinyl)-1-(2-propanyloxy)-2-propanesulfonamide or (1S,2S)-N-((5S)-5-(hydroxymethyl)-10-methoxy-5,6-dihydro[1,2,4]triazolo[4,3-d][1,4]benzoxazepin-3-yl)-1-(5-methyl-2-pyrimidinyl)-1-(2-propanyloxy)-2-propanesulfonamide], the EC50 is reported as 1270 nM.
For `COC[C@@H]1COc2cc(F)c(F)cc2-c2nnc(NS(=O)(=O)[C@@H](C)[C@@H](OC(C)C)c3ncc(C)cn3)n21` (single isomer, unassigned) [Example 20.0, (1S,2S)-N-((5R)-9,10-difluoro-5-(methoxymethyl)-5,6-dihydro[1,2,4]triazolo[4,3-d][1,4]benzoxazepin-3-yl)-1-(5-methyl-2-pyrimidinyl)-1-(2-propanyloxy)-2-propanesulfonamide or (1S,2S)-N-((5S)-9,10-difluoro-5-(methoxymethyl)-5,6-dihydro[1,2,4]triazolo[4,3-d][1,4]benzoxazepin-3-yl)-1-(5-methyl-2-pyrimidinyl)-1-(2-propanyloxy)-2-propanesulfonamide], the EC50 was 990 nM.
`CO[C@H](c1ncc(C)cn1)[C@H](C)S(=O)(=O)Nc1nnc2n1[C@H](COC(C)C)COc1ncccc1-2` (single isomer, unassigned) [Example 63.0, (1R,2S)-N-((R)-5-(isopropoxymethyl)-5,6-dihydropyrido[3,2-f][1,2,4]triazolo[4,3-d][1,4]oxazepin-3-yl)-1-methoxy-1-(5-methylpyrimidin-2-yl)propane-2-sulfonamide or (1R,2S)-N-((S)-5-(isopropoxymethyl)-5,6-dihydropyrido[3,2-f][1,2,4]triazolo[4,3-d][1,4]oxazepin-3-yl)-1-methoxy-1-(5-methylpyrimidin-2-yl)propane-2-sulfonamide] showed an EC50 of 800 nM.
With `COC[C@@H]1COc2cnccc2-c2nnc(NS(=O)(=O)[C@@H](C)[C@@H](OC(C)C)c3ncc(C)cn3)n21` (single isomer, unassigned) [Example 66.0, (1S,2S)-N-((5R)-5-(methoxymethyl)-5,6-dihydropyrido[4,3-f][1,2,4]triazolo[4,3-d][1,4]oxazepin-3-yl)-1-(5-methyl-2-pyrimidinyl)-1-(2-propanyloxy)-2-propanesulfonamide or (1S,2S)-N-((5S)-5-(methoxymethyl)-5,6-dihydropyrido[4,3-f][1,2,4]triazolo[4,3-d][1,4]oxazepin-3-yl)-1-(5-methyl-2-pyrimidinyl)-1-(2-propanyloxy)-2-propanesulfonamide] the EC50 was 760 nM.
With `COC[C@@H]1COc2cc(F)c(F)cc2-c2nnc(NS(=O)(=O)[C@@H](C)[C@@H](OC(C)C)c3ncc(C)cn3)n21` (single isomer, unassigned) [Example 21.0, (1S,2S)-N-((5R)-9,10-difluoro-5-(methoxymethyl)-5,6-dihydro[1,2,4]triazolo[4,3-d][1,4]benzoxazepin-3-yl)-1-(5-methyl-2-pyrimidinyl)-1-(2-propanyloxy)-2-propanesulfonamide or (1S,2S)-N-((5S)-9,10-difluoro-5-(methoxymethyl)-5,6-dihydro[1,2,4]triazolo[4,3-d][1,4]benzoxazepin-3-yl)-1-(5-methyl-2-pyrimidinyl)-1-(2-propanyloxy)-2-propanesulfonamide] the EC50 was 3400 nM.
Work on `COC[C@@H]1COc2c(OC)cccc2-c2nnc(NS(=O)(=O)[C@@H](C)[C@@H](OC(C)C)c3ncc(C)cn3)n21` (mixture of isomers) [Example 33.0, (1S,2S)-N-((5R)-8-methoxy-5-(methoxymethyl)-5,6-dihydro[1,2,4]triazolo[4,3-d][1,4]benzoxazepin-3-yl)-1-(5-methyl-2-pyrimidinyl)-1-(2-propanyloxy)-2-propanesulfonamide and (1S,2S)-N-((5S)-8-methoxy-5-(methoxymethyl)-5,6-dihydro[1,2,4]triazolo [4,3-d][1,4]benzoxazepin-3-yl)-1-(5-methyl-2-pyrimidinyl)-1-(2-propanyloxy)-2-propanesulfonamide] yielded an EC50 of 15 nM.
`COCC1COc2ccc(OC)cc2-c2nnc(NS(=O)(=O)[C@@H](C)[C@@H](OC(C)C)c3ncc(C)cn3)n21` (single isomer, unassigned) [Example 152.0, (1S,2S)-N-((5R)-10-methoxy-5-(methoxymethyl)-5,6-dihydro[1,2,4]triazolo[4,3-d][1,4]benzoxazepin-3-yl)-1-(5-methyl-2-pyrimidinyl)-1-(2-propanyloxy)-2-propanesulfonamide or (1S,2S)-N-((5S)-10-methoxy-5-(methoxymethyl)-5,6-dihydro[1,2,4]triazolo[4,3-d][1,4]benzoxazepin-3-yl)-1-(5-methyl-2-pyrimidinyl)-1-(2-propanyloxy)-2-propanesulfonamide] was tested, and the EC50 was 37 nM.
In the case of `COC[C@@H]1COc2ncccc2-c2nnc(NS(=O)(=O)[C@@H](C)[C@@H](OC(C)C)c3ncc(C)cn3)n21` (single isomer, unassigned) [Example 40.0], the EC50 is reported as 86 nM.
`COC[C@@H]1COc2cc(F)c(F)cc2-c2nnc(NS(=O)(=O)[C@@H](C)[C@@H](OC(C)C)c3ncc(C)cn3)n21` (mixture of isomers) [Example 16.0, (1S,2S)-N-((5R)-9,10-difluoro-5-(methoxymethyl)-5,6-dihydro[1,2,4]triazolo[4,3-d][1,4]benzoxazepin-3-yl)-1-(5-methyl-2-pyrimidinyl)-1-(2-propanyloxy)-2-propanesulfonamide and (1S,2S)-N-((5S)-9,10-difluoro-5-(methoxymethyl)-5,6-dihydro[1,2,4]triazolo[4,3-d][1,4]benzoxazepin-3-yl)-1-(5-methyl-2-pyrimidinyl)-1-(2-propanyloxy)-2-propanesulfonamide] was tested, and the EC50 was 1700 nM.
For `Cc1cnc([C@H](OC(C)C)[C@H](C)S(=O)(=O)Nc2nnc3n2-c2c(F)cccc2/C=C\C[C@@H]3C)nc1` (single isomer, unassigned) [Example 52.0], the EC50 was > 12500 nM.
`Cc1cnc([C@H](OC(C)C)[C@H](C)S(=O)(=O)Nc2nnc3n2-c2ccccc2/C=C\CC3)nc1` (single isomer, unassigned) [Example 47.0, (P) (1S,2S)-N-((Z)-4,5-dihydrobenzo[g][1,2,4]triazolo[4,3-a]azocin-1-yl)-1-isopropoxy-1-(5-methylpyrimidin-2-yl)propane-2-sulfonamide or (M) (1S,2S)-N-((Z)-4,5-dihydrobenzo[g][1,2,4]triazolo[4,3-a]azocin-1-yl)-1-isopropoxy-1-(5-methylpyrimidin-2-yl)propane-2-sulfonamide] was tested, and the EC50 was > 12500 nM.
